From patent publication US4254155A, “Preparing neohesperidin dihydrochalcone sweetener composition” (Chimicasa GmbH, priority 1979, dated 1981)

Experiment: discoloration / colour of aqueous NHDC solution
Type: physicochemical
Conditions: over a period of time
Excerpt: The preferred acidulants are weak organic C1 -C6 organic mono- or di-carboxylic acids.
The acidulant-like malic or citric acid is incorporated to lower the pH to less than 6.5, in order to remove the yellow color formed in aqueous solutions of NHDC-based compositions.

discoloration of aqueous NHDC solution: yellow discoloration
Compound: COc1ccc(CCC(=O)c2c(O)cc(O[C@@H]3O[C@H](CO)[C@@H](O)[C@H](O)[C@H]3O[C@@H]3O[C@@H](C)[C@H](O)[C@@H](O)[C@H]3O)cc2O)cc1O [NHDC, Neohesperidin dihydrochalcone]
